Source: ChEMBL document CHEMBL4270495, “Oleanane-, ursane-, and quinone methide friedelane-type triterpenoid derivatives: Recent advances in cancer treatment” (Eur J Med Chem, 2017)

Assays:
HepG2 [1] = assay: Cytotoxicity in human HepG2 cells assessed as reduction in cell viability incubated for 48 hrs by MTT assay; assay type: functional, cell-based; conditions: HepG2, 48 h
SMMC-7721 = assay: Cytotoxicity in human SMMC7721 cells assessed as reduction in cell viability incubated for 48 hrs by MTT assay; assay type: functional, cell-based; conditions: SMMC-7721, 48 h
HeLa [2] = assay: Cytotoxicity in human HeLa cells assessed as reduction in cell viability; assay type: functional, cell-based
BGC-823 = assay: Cytotoxicity in human BGC823 cells assessed as reduction in cell viability; assay type: functional, cell-based
HeLa [3] = assay: Cytotoxicity in human HeLa cells assessed as reduction in cell viability incubated for 72 hrs by MTT assay; assay type: functional, cell-based
HT-29 = assay: Cytotoxicity in human HT-29 cells assessed as reduction in cell viability incubated for 72 hrs by MTT assay; assay type: functional, cell-based; conditions: HT-29, 72 h
MCF7 [4] = assay: Cytotoxicity in human MCF7 cells assessed as reduction in cell viability incubated for 72 hrs by MTT assay; assay type: functional, cell-based; conditions: MCF7, 72 h
SGC-7901 [5] = assay: Cytotoxicity in human SGC7901 cells assessed as reduction in cell viability incubated for 48 hrs by MTT assay; assay type: functional, cell-based; conditions: SGC-7901, 48 h
HepG2 [6] = assay: Cytotoxicity in human HepG2 cells assessed as reduction in cell viability incubated for 72 hrs by MTT assay; assay type: functional, cell-based; conditions: HepG2, 72 h
B16-F10 = assay: Cytotoxicity in mouse B16F10 cells assessed as reduction in cell viability incubated for 72 hrs by MTT assay; assay type: functional, cell-based; conditions: B16-F10, 72 h
HepG2 [7] = assay: Cytotoxicity in human HepG2 cells assessed as reduction in cell viability incubated for 72 hrs by CCK8 assay; assay type: functional, cell-based; conditions: HepG2, 72 h
A549 [8] = assay: Cytotoxicity in human A549 cells assessed as reduction in cell viability incubated for 72 hrs by CCK8 assay; assay type: functional, cell-based; conditions: A549, 72 h
MCF7 [9] = assay: Cytotoxicity in human MCF7 cells assessed as reduction in cell viability incubated for 72 hrs by CCK8 assay; assay type: functional, cell-based; conditions: MCF7, 72 h
HeLa [10] = assay: Cytotoxicity in human HeLa cells assessed as reduction in cell viability incubated for 72 hrs by CCK8 assay; assay type: functional, cell-based
SGC-7901 [11] = assay: Cytotoxicity in human SGC7901 cells assessed as reduction in cell viability incubated for 72 hrs by CCK8 assay; assay type: functional, cell-based; conditions: SGC-7901, 72 h
PC-3 = assay: Cytotoxicity in human PC3 cells assessed as reduction in cell viability incubated for 72 hrs by CCK8 assay; assay type: functional, cell-based; conditions: PC-3, 72 h
A-375 = assay: Cytotoxicity in human A375 cells assessed as reduction in cell viability incubated for 24 hrs by MTT assay; assay type: functional, cell-based; conditions: A-375, 24 h
NCI-H446 = assay: Cytotoxicity in human NCI-H446 cells assessed as reduction in cell viability incubated for 24 hrs by MTT assay; assay type: functional, cell-based; conditions: NCI-H446, 24 h
[12] = Cytotoxicity in human SPC-A1 cells assessed as reduction in cell viability incubated for 24 hrs by MTT assay; assay type: functional, cell-based; conditions: SPCA1, 24 h
MCF7 [13] = assay: Cytotoxicity in human MCF7 cells assessed as reduction in cell viability incubated for 48 hrs by SRB assay; assay type: functional, cell-based; conditions: MCF7, 48 h
MDA-MB-231 [14] = assay: Cytotoxicity in human MDA-MB-231 cells assessed as reduction in cell viability incubated for 48 hrs by SRB assay; assay type: functional; conditions: MDA-MB-231, 48 h
A549 [15] = assay: Cytotoxicity in human A549 cells assessed as reduction in cell viability incubated for 48 hrs by MTT assay; assay type: functional, cell-based; conditions: A549, 48 h
T-24 = assay: Cytotoxicity in human T24 cells assessed as reduction in cell viability incubated for 48 hrs by MTT assay; assay type: functional, cell-based; conditions: T-24, 48 h
[16] = Cytotoxicity in human SPCA2 cells assessed as reduction in cell viability incubated for 48 hrs by MTT assay; assay type: functional, cell-based; conditions: SPCA2, 48 h
HUVEC = assay: Cytotoxicity in HUVEC cells assessed as reduction in cell viability incubated for 48 hrs by MTT assay; assay type: cell-based; conditions: Homo sapiens
MDA-MB-231 [17] = assay: Cytotoxicity in human MDA-MB-231 cells assessed as reduction in cell viability incubated for 24 hrs by MTT assay; assay type: functional, cell-based; conditions: MDA-MB-231, 24 h
MCF7 [18] = assay: Cytotoxicity in human MCF7 cells assessed as reduction in cell viability incubated for 24 hrs by MTT assay; assay type: functional, cell-based; conditions: MCF7, 24 h
MDA-MB-468 = assay: Cytotoxicity in human MDA-MB-468 cells assessed as reduction in cell viability incubated for 24 hrs by MTT assay; assay type: functional, cell-based; conditions: MDA-MB-468, 24 h
T47D = assay: Cytotoxicity in human T47D cells assessed as reduction in cell viability incubated for 24 hrs by MTT assay; assay type: functional, cell-based
MCF-12A = assay: Cytotoxicity in human MCF12A cells assessed as reduction in cell viability incubated for 24 hrs by MTT assay; assay type: functional, cell-based
HL-60 = assay: Cytotoxicity in human HL60 cells assessed as reduction in cell viability incubated for 24 hrs by MTT assay; assay type: functional, cell-based; conditions: HL-60, 24 h
HL60/ADR = assay: Cytotoxicity in human HL60/ADR cells assessed as reduction in cell viability incubated for 24 hrs by MTT assay; assay type: functional, cell-based

For `COC1=C(Br)C(=O)c2c([nH]c3c2C[C@]2(C)[C@H]4CC=C5[C@@H]6[C@@H](C)[C@H](C)CC[C@]6(C(=O)O)CC[C@@]5(C)[C@]4(C)CC[C@H]2C3(C)C)C1=O`, the IC50 (HepG2 [1]) was 1.6 µM and the IC50 (SMMC-7721) was 1.2 µM.

In the case of `CC(=O)O[C@H]1CC[C@]2(C)[C@H]3CC=C4[C@@H]5[C@@H](C)[C@H](C)CC[C@]5(C(=O)N5CCOCC5)CC[C@@]4(C)[C@]3(C)CC[C@H]2C1(C)C`, the IC50 (HeLa [2]) is reported as 2.2 µM and the IC50 (BGC-823) is reported as over 10 µM.

Compound `COC(=O)[C@]12CC[C@@H](C)[C@H](C)[C@H]1C1=CC(=O)[C@@H]3[C@@]4(C)C(C#N)=C[C@@](C)(COS(C)(=O)=O)[C@@H]4CC[C@@]3(C)[C@]1(C)CC2` has an IC50 (HeLa [3]) of 7.27 µM, an IC50 (HT-29) of 9.77 µM and an IC50 (MCF7 [4]) of 19.5 µM.

With `CC1=C(O)C(=O)C=C2C1=CC=C1[C@@]2(C)CC[C@@]2(C)[C@@H]3C[C@](C)(C(=O)NCC(C)O)CC[C@]3(C)CC[C@]12C` (some centres undefined) the IC50 (SGC-7901 [5]) was 0.1 µM and the IC50 (SMMC-7721) was 0.61 µM.

Work on `CCCC(=O)O[C@@H]1C[C@]2(C)[C@H]3CC=C4[C@@H]5CC(C)(C)CC[C@]5(C(=O)NCCCCCCCCCCC(=O)O)CC[C@@]4(C)[C@]3(C)CC[C@H]2C(C)(C)[C@H]1OC(=O)CCC` yielded an IC50 (HT-29) of 1.37 µM, an IC50 (HepG2 [6]) of 27.6 µM and an IC50 (B16-F10) of 5.7 µM.

In the case of `COC(=O)C1CCCN1C(=O)[C@]12CC[C@@H](C)[C@H](C)[C@H]1C1=CC[C@@H]3[C@@]4(C)C[C@@H](OC(C)=O)[C@H](OC(C)=O)[C@@](C)(COC(C)=O)[C@@H]4CC[C@@]3(C)[C@]1(C)CC2` (some centres undefined), the IC50 (HepG2 [7]) is reported as 0.9 µM, the IC50 (A549 [8]) is reported as 2.4 µM and the IC50 (MCF7 [9]) is reported as 4.5 µM. The IC50 (HeLa [10]) was 4.8 µM, the IC50 (SGC-7901 [11]) was 4.6 µM and the IC50 (PC-3) was 9.2 µM.

In the case of `CC(=O)OC[C@]1(C)[C@@H]2CC[C@]3(C)[C@H](C(=O)C=C4[C@H]5[C@](C(=O)OCC(=O)N/N=C/c6ccc(Cl)cc6)(CC[C@@H](C)[C@@]5(C)O)CC[C@]43C)[C@@]2(C)CC[C@@H]1OC(C)=O`, the IC50 (A-375) is reported as over 100 µM, the IC50 (NCI-H446) is reported as over 100 µM and the IC50 [12] is reported as over 100 µM.

In the case of `CC(=O)OC[C@]1(C)[C@@H]2CC[C@]3(C)[C@H](C(=O)C=C4[C@H]5[C@](C(=O)OCC(=O)N/N=C/c6ccc(C)cc6)(CC[C@@H](C)[C@@]5(C)O)CC[C@]43C)[C@@]2(C)CC[C@@H]1OC(C)=O`, the IC50 (A-375) is reported as 6.5 µM, the IC50 (NCI-H446) is reported as 15 µM and the IC50 [12] is reported as 7.4 µM.

Work on `CCCC(=O)OC[C@]1(C)C=C(C=O)[C@@]2(C)[C@H]1CC[C@]1(C)[C@@H]2C(=O)C=C2[C@@H]3[C@@H](C)[C@H](C)CC[C@]3(C(=O)OC)CC[C@]21C` yielded an IC50 (HeLa [3]) of 0.49 µM, an IC50 (HT-29) of 0.77 µM and an IC50 (MCF7 [4]) of 0.88 µM.

Work on `CCCC(=O)O[C@H]1CC[C@]2(C)[C@H]3CC=C4[C@@H]5[C@@H](C)[C@H](C)CC[C@]5(C(=O)N5CCOCC5)CC[C@@]4(C)[C@]3(C)CC[C@H]2C1(C)C` yielded an IC50 (HeLa [2]) of over 10 µM and an IC50 (BGC-823) of 9.7 µM.

In the case of `C[C@H]1[C@H](C)CC[C@]2(C(=O)O)CC[C@]3(C)C(=CC[C@@H]4[C@@]5(C)C[C@@H](O)[C@H](O)[C@@](C)(CO)[C@@H]5CC[C@]43C)[C@H]12` [ASIATIC ACID], the GI50 (MCF7 [13]) is reported as 19.1 µM, the GI50 (MDA-MB-231 [14]) is reported as 18.1 µM and the IC50 (A549 [8]) is reported as 18.8 µM. It also gave an IC50 (MCF7 [9]) of 32.8 µM, an IC50 (HeLa [10]) of 4 to 55.1 µM and an IC50 (SGC-7901 [11]) of 36.8 µM. For the same compound, the IC50 (PC-3) was 53.6 µM, the IC50 (A549 [15]) was 37.8 µM and the IC50 (T-24) was 33.7 µM. It also gave an IC50 [16] of 39.4 µM and an IC50 (HUVEC) of over 100 µM.

With `CC1(C)CC[C@]2(C(=O)O)CC[C@]3(C)C(=CC[C@@H]4[C@@]5(C)CC[C@H](O)C(C)(C)[C@@H]5CC[C@]43C)[C@@H]2C1` [OLEANOLIC_ACID] the IC50 (MDA-MB-231 [17]) was over 50 µM, the IC50 (MCF7 [18]) was 12.7 µM and the IC50 (MDA-MB-468) was 38.1 µM. For the same compound, the IC50 (T47D) was 36.2 µM, the IC50 (MCF-12A) was over 50 µM and the IC50 (HL-60) was 14.8 µM. The IC50 (HL60/ADR) was 28.8 µM, the GI50 (MCF7 [13]) was 10.3 µM and the GI50 (MDA-MB-231 [14]) was 17.6 µM.
